We go through four compounds from US12324810B2, “3, 7-diamino-10H-phenothiazine salts and their use” (WisTa Laboratories Ltd., priority 2006, dated 2025).

Molecules are shown by their SMILES. Read-outs that look alike come from different tables or passages of the source.

A word on the EC50: it is the concentration at which the effect is half-maximal.

Series [1] addresses T1, full-length tau (T40) in fibroblast cells (3T6) (Homo sapiens, UniProt P10636).
T1 construct: fibroblast cells (3T6) express full-length tau (“T40”) under control of an inducible promoter; low constitutive levels of the PHF-core tau fragment (12 kD fragment); expressed in transfected cells; host or cells: 3T6 fibroblast cells
The series can be described thus: Cell-based assay for establishing EC50 (generation of the 12 kD fragment).
Excerpt: Briefly, fibroblast cells (3T6) express full-length tau (“T40”) under control of an inducible promoter, and low constitutive levels of the PHF-core tau fragment (12 kD fragment). When T40 expression is induced, it undergoes aggregation-dependent truncation within the cell, N-terminally at ˜αα295 and C-terminally at ˜αα390, thereby producing higher levels of the 12 kD PHF-core domain fragment. […] Indeed, the quantitation of inhibitory activity of compounds with respect to proteolytic generation of the 12 kD fragment within cells can be described entirely in terms of the same parameters that describe inhibition of tau-tau binding in vitro. That is, the extent of proteolytic generation of the 12 kD fragment within cells is determined entirely by the extent of tau-tau binding through the repeat domain. The availability of the relevant proteases within the cell is non-limiting.
Results are expressed as the concentration at which there is a 50% inhibition of generation of the 12 kD fragment. This is referred to as the EC50 value.

A further series concerns fibroblast cells (3T6). In kind it is cell-based. The conditions noted are these: therapeutic index, RxI = LD50/EC50.
The nature of series [2]: Partition coefficient, n-octanol/water, visible spectrophotometry. In kind it is physicochemical.
Description: In this study, aqueous solutions of selected compounds were shaken with n-octanol and aliquots concentrations in each phase determined by visible spectrophotometry. The log10P was then calculated for each compound, using the following formula:
Series [3] can be described thus: Stability of the solid form in storage. In kind it is physicochemical. As for the experimental part:
A batch of N,N,N′,N′-tetramethyl-10H-phenothiazine-3,7-diamine bis(hydrogen bromide) was prepared in April 2006 and analysed by NMR. […] The colour of the solid remained consistent over time. It appears that the molecule, in this form, is stable under these conditions over this time period.

A short description of series [4]: Stability in aqueous solution (percent reduced form by absorbance at 610 nm and 665 nm). It counts as physicochemical. As for the experimental part:
The compounds were weighed into universal containers. Enough water was added to yield a 1 mM solution, and the mixture stirred to dissolve the solid. The absorbance was determined at 610 nm and 665 nm for 50 μL samples (in triplicate) of each of the solutions at various time points. The initial time point taken was at 10 minutes as the compounds took time to dissolve completely. A UV/visible spectrum was also recorded at time points 20 minutes, 3 hours, and 18 hours.

Where [5] appears, read: concentration at which there is a 50% inhibition of generation of the 12 kD fragment, 3T6 cells, read-out: EC50.

T1 sequence (P10636 2-441 isoform P10636-8 limits assumed): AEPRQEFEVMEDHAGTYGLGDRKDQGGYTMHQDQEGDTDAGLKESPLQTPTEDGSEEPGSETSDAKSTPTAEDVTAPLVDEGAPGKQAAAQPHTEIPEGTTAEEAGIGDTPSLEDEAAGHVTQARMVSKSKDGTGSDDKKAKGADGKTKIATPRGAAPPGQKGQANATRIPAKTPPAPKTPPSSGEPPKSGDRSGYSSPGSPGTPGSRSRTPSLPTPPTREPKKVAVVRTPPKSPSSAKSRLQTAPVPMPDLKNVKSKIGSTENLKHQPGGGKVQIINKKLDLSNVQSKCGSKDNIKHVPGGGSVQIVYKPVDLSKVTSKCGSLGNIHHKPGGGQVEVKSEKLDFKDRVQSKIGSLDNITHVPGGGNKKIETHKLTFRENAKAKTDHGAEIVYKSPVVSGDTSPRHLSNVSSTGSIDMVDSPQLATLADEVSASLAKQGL

On to `CN(C)c1ccc2c(c1)Sc1cc(N(C)C)ccc1N2` [Compound B3, N,N,N′,N′-Tetramethyl-10H-phenothiazine-3,7-diamine bis(hydrogen chloride)], for which, in series [1] (setting [5]), the EC50 worked out at 500 nM. The RxI in the series with fibroblast cells (3T6) worked out at 88. This compound also gave a Log10P in series [2] of −0.13. Further, the “state of solid form after storage” value in series [3] (solid form, after 2 years in storage) was “substantially reduced”.

`Nc1ccc2c(c1)Sc1cc(N)ccc1N2` [Compound B4, 3,7-Diamino-phenothiazine bis(hydrogen chloride)]: the concentration giving a half-maximal response (EC50) in series [1] (setting [5]) was determined as 2230 nM.

Take `CN(C)c1ccc2c(c1)Sc1cc(N(C)C)ccc1N2` [Compound B6, N,N,N′,N′-Tetramethyl-10H-phenothiazine-3,7-diamine bis(hydrogen iodide)]: in series [1], the EC50 is 380 nM. In the series with fibroblast cells (3T6), this compound showed a RxI of 303. In addition, the Log10P in series [2] is −0.498. For the same compound, the “time remaining substantially stable (>50% reduced form)” value in series [4] (1 mM solution in water) is about 3 h. Also, the rate of autoxidation entry in series [4] (aqueous solution, compared to the chloride compound (Compound B3)) is listed as “slower”.

On to `CN(C)c1ccc2c(c1)Sc1cc(N(C)C)ccc1N2` [N,N,N′,N′-Tetramethyl-10H-phenothiazine-3,7-diamine bis(hydrogen bromide], for which the “stability of solid after storage (NMR, colour)” value in series [3] (solid, 10 months of storage in the dark at room temperature) was “stable”.
